Reference: PMC9861858, “Stereoselective Synthesis and Antiproliferative Activities of Tetrafunctional Diterpene Steviol Derivatives” (International Journal of Molecular Sciences, 2023)
In brackets after ≈: the same amount, converted by molar mass.

Legend:
HeLa cells = test: MTT antiproliferative assay, HeLa; format: cell-based, human; settings: for inhibition at 10 µM / inhibition at 30 µM: Homo sapiens, HeLa, 72 h, values <20% considered negligible, read-out: Growth inhibition (%) ± SEM, HeLa
Description: (§1) The in vitro antiproliferative activities of the synthesised aminotriols 5–18 against a panel of different human cancer cell lines of gynecological origin, including cervical (SiHA and HeLa), breast (MCF7 and MDA-MB-231), ovary (A2780) cancers and NIH/3T3 healthy fibroblasts, were assayed by the MTT method. Cisplatin, a clinically applied anticancer agent was used as a reference compound, and the results are summarised in Figure 3 and Table S1 in the Supplementary Materials.
(§2) The growth-inhibitory effects of the presented terpenes were determined by a standard MTT [3-(4,5-dimethylthiazol2-yl)-2,5-diphenyltetrazolium bromide] assay against […] human cancer cell lines (cervical cancer HeLa and SiHa cell lines, breast cancer MCF-7 and MDA-MB-231 and ovarian cancer A2780). Murine embryonal fibroblast cells (NIH/3T3) were used to determine selectivity. All cell lines were purchased from the European Collection of Cell Cultures (Salisbury, UK). The cells were cultivated in Eagle’s minimal essential medium supplemented with 10% fetal bovine serum, 1% non-essential amino acids, and 1% Antibiotic-Antimycotic complex (penicillin, streptomycin, amphotericin B) at 37 °C in a humidified atmosphere containing 5% CO2. All media and supplements were purchased from Lonza Group Ltd. (Basel, Switzerland). Cancer cells were seeded into 96-well plates (5000 cells/well) after an overnight incubation, and the test compounds were added at two different concentrations (10 μM and 30 μM) and incubated for another 72 h under cell-culturing conditions. Finally, 20 μL of a 5 mg/mL MTT solution was added to each well, and the contents were incubated for a further 4 h. The medium was removed, and the precipitated formazan crystals were dissolved in DMSO by shaking at 37 °C for 60 min. The absorbance was measured at 545 nm by using a microplate reader (SPECTROStar Nano, BMG Labtech, Offenburg, Germany). Clinically utilised anticancer agent cisplatin (Ebewe GmbH, Unterach, Austria) was included as a reference molecule. Calculations were performed using the GraphPad Prism 9 software (GraphPad Software Inc., San Diego, CA, USA).

SiHa cells = test: MTT antiproliferative assay, SiHa; format: cell-based, human; settings: Homo sapiens, SiHa, 72 h, values <20% considered negligible, read-out: Growth inhibition (%) ± SEM, SiHa
Description: as §1, §2

MCF-7 cells = test: MTT antiproliferative assay, MCF-7; format: cell-based, human; settings: Homo sapiens, 72 h, values <20% considered negligible, read-out: Growth inhibition (%) ± SEM, MCF-7; for inhibition at 10 µM: MCF7, 10 μM; for inhibition at 30 µM: MCF7, 30 μM
Description: as §1, §2

MDA-MB-231 cells = test: MTT antiproliferative assay, MDA-MB-231; format: cell-based, human; settings: Homo sapiens, 72 h, values <20% considered negligible, read-out: Growth inhibition (%) ± SEM, MDA-MB-231; for inhibition at 10 µM: MDA-MB-231, 10 μM; for inhibition at 30 µM: MDA-MB-231, 30 μM
Description: as §1, §2

A2780 cells = test: MTT antiproliferative assay, A2780; format: cell-based, human; settings: Homo sapiens, 72 h, values <20% considered negligible, read-out: Growth inhibition (%) ± SEM, A2780; for inhibition at 10 µM: A2780, 10 μM; for inhibition at 30 µM: A2780, 30 μM
Description: as §1, §2

NIH/3T3 fibroblasts = test: MTT assay on fibroblasts (selectivity); format: cell-based, murine; settings: Mus musculus, 72 h, values <20% considered negligible, read-out: Growth inhibition (%) ± SEM, NIH/3T3; for inhibition at 10 µM: NIH3T3, 10 μM; for inhibition at 30 µM: NIH3T3, 30 μM
Description: as §1, §2

[1] = test system: human cancer cell lines (HeLa, SiHa, A2780, MCF-7 and MDA-MB-231); test: MTT antiproliferative assay, whole cancer cell panel; format: cell-based; settings: 10 and 30 μM
Description: as §1, §2

[2] = Kinetic aqueous solubility; format: physicochemical; settings: phosphate buffered saline with 5% DMSO, aqueous with cosolvent or surfactant or cyclodextrin, kinetic from dmso stock; after 2 h, at 37 °C in PBS, pH 7.4, 5% DMSO; target concentration 500 μM; mean ± S.E.M, n = 3
Description: (§3) Filtrates and calibration solutions (5–500 μ M) of the kinetic solubility study and starting donor and acceptor solutions of the PAMPA-GI study were investigated by HPLC-DAD-MS. LC-MS analysis was performed using a Waters 2795 HPLC with a Waters 2487 DAD detector coupled with a Micromass Quattro Ultima TMPt quadrupol mass spectrometer equipped with an ESI source. Measurements were performed on a Waters XSelect C18 (150 × 4.6 mm; 3.5 μm) column with a […] eluent flow rate and the temperature set at 40 °C. The composition of eluent A was MilliQ water with 0.1% formic acid, and that of eluent B was an acetonitrile and MilliQ water mixture (95:5, v/v), also with 0.1% formic acid. The following linear gradient program was used: 0–6 min, 10–100% B; this was held for 3 min, then from 9.01 min on, back to the starting composition of 10% B–90% A. The injection volume was 10 μL for each sample. Chromatographic profiles were registered at dual wavelength, 220 and 240 nm. The mass spectrometer was used in negative ion mode for samples 2, 3 and 4b, and in positive ion mode for other samples. The operating parameters of the MS were: Mass range of m/z 150–700. Nitrogen gas flow rate was 350 L/h, temperature of 350 °C and pressure of 6 bar. The quadrupol temperature was 120 °C, and the capillary voltage was 2.5 kV. Fragmentor’s voltage of 60 V.
(§4) Intestinal (GI) permeability was determined by using an intestinal-specific parallel artificial membrane permeability assay (PAMPA-GI [36]]). […] All solutions were filtered by MultiScreen HTS Vacuum Manifold (Merck Ltd., Budapest, Hungary) after the incubation period. The target concentration was 500 μM for every sample investigated. The intestinal-specific effective permeability of the samples was determined by PAMPA-GI. To prepare starting solutions for a 96-well donor plate, 15 μLs of the 10 mM DMSO stock solution of investigation compounds and 285 μL pH 6.5 phosphate buffer solution were mixed. These solutions were left in a shaking incubator (300 rpm) at 25 °C for 1 h. Meanwhile, a 96-well acceptor plate was filled with 300 μL of pH 7.4 PBS buffer solution containing 5% DMSO. The intestinal-specific artificial membrane was prepared the following way: the hydrophobic filter material of the donor plate was coated with a mixture of phosphatidylcholine/cholesterol = 2:1 (5 μL, 4 % (w/v) in dodecane). After that, all donor wells were filled with 150 μL of the starting donor solutions, and they were carefully placed on the acceptor plate and incubated at 37 °C for 4 h. After the end of the incubation period the donor and acceptor plates were separated carefully. A total of 150 μL of the donor, acceptor and the starting donor solutions were sampled and analysed with HPLC-DAD-MS. The effective permeability and membrane retention of drugs were calculated using the following equations: Pe=−2.303/A·(t−τss)·1/1+rv·lg[−rv+(1+rv/1−MR)·]CD(t)/CD(0) MR=1−CD(t)/CD(0)−VA·CA(t)/VD·CD(0) where Pe is the effective permeability coefficient (cm/s), A is the filter area (0.3 cm^2), VD and VA are the volumes in the donor (0.15 cm^3) and acceptor phase (0.3 cm^3), t is the incubation time (s), τSS is the time to reach steady-state (s), CD(t) is the concentration of the compound in the donor phase at time point t (mol/cm^3), CD(0) is the concentration of the compound in the donor phase at time point zero (mol/cm^3), rv is the aqueous compartment volume ratio (VD/VA), MR is the membrane retention factor.

[3] = Intestinal-specific parallel artificial membrane permeability assay (PAMPA-GI); format: in vitro ADME; settings: gradient pH system (pH donor 6.5 → pH acceptor 7.4) after 4 h, at 37 °C; mean ± S.E.M, n = 3
Description: as §3, §4

Row | SMILES | inhibition at 10 µM (HeLa cells) [%] | inhibition at 30 µM (HeLa cells) [%] | inhibition at 10 µM (SiHa cells) [%] | inhibition at 30 µM (SiHa cells) [%] | inhibition at 10 µM (MCF-7 cells) [%] | inhibition at 30 µM (MCF-7 cells) [%] | inhibition at 10 µM (MDA-MB-231 cells) [%] | inhibition at 30 µM (MDA-MB-231 cells) [%] | inhibition at 10 µM (A2780 cells) [%] | inhibition at 30 µM (A2780 cells) [%] | inhibition at 10 µM (NIH/3T3 fibroblasts) [%] | inhibition at 30 µM (NIH/3T3 fibroblasts) [%] | Antiproliferative activity on the cancer cell panel, in words [1] | melting point [°C] | Antiproliferative effect on HeLa, in words (HeLa cells; 10 and 30 μM) | solubility kinetic at 2 h [2] [µM] | PAMPA-GI MR (membrane retention) [3] [%]
1 | C=C1[C@H](O)[C@@]23CCC4[C@@](C)(CCC[C@@]4(C)C(=O)OC)C2CC[C@]1(O)C3 (stereo partly drawn) [Compound 3, (4R,6aR,7R,9S,11bS)-Methyl 7,9-Dihydroxy-4,11b-dimethyl-8-methylenetetradecahydro-6a,9-methanocyclohepta[a]naphthalene-4-carboxylate] | < 20 | 27.9 ± 2.3 | < 20 | 30.7 ± 2.71 | < 20 | 49.2 ± 2.19 | < 20 | < 20 | < 20 | < 20 | < 20 | < 20 | any notable effect was not detectable | 253 to 255 | – | – | –
2 | COC(=O)[C@]1(C)CCC[C@@]2(C)C3CC[C@]4(O)C[C@@]3(CCC21)[C@@H](O)[C@]41CO1 (stereo partly drawn) [Compound 4b, (2’R,4R,6aR,7R,9S,11bS)-Methyl 7,9-Dihydroxy-4,11b-dimethyldodecahydro-1H-spiro[6a,9-methanocyclohepta[a]naphthalene-8,2’-oxirane]-4-carboxylate] | 30.6 ± 1.09 | 95.35 ± 0.11 | < 20 | 58 ± 2.66 | < 20 | 53.1 ± 2.2 | < 20 | 36.7 ± 1.62 | < 20 | 62 ± 0.78 | < 20 | 37.2 ± 0.71 | significant activity in higher concentrations only | 182 to 185 | potent inhibition | – | –
3 | COC(=O)[C@]1(C)CCC[C@@]2(C)C3CC[C@]4(O)C[C@@]3(CCC21)[C@@H](O)[C@]4(O)CN (stereo partly drawn) [Compound 17, (4R,6aR,7R,8R,9S,11bS)-Methyl 8-(Aminomethyl)-7,8,9-trihydroxy-4,11b-dimethyltetradecahydro-6a,9-methanocyclohepta[a]naphthalene-4-carboxylate] | < 20 | 28.9 ± 2.72 | < 20 | < 20 | < 20 | < 20 | < 20 | 30.4 ± 2.04 | < 20 | < 20 | < 20 | < 20 | any notable effect was not detectable | 152 to 155 | – | 535 ± 38.4 (≈ 204 µg/mL) | 1.5 ± 0.3
